Where no end group is shown, it is not given here.
Legend:
[1] = test system: anti-MBP purified from CSF of MS patients; test: In vitro neutralization of purified anti-MBP (liquid phase assay, then solid phase radioimmunoassay); format: binding, human; settings: for neutralization of purified anti-MBP: pooled anti-MBP from 10 MS patients, FIG. 2; for REACTIVITY WITH ANTI-MBP: purified anti-MBP, h-MBP 0-1000 ng, peptides 0-10,000 ng, 1.5 hours incubation
Source text: Purified MBP was coupled to CNBr-activated Sepharose 4B (Pharmacia™) according to the manufacturer's instructions. Purified CSF IgG containing increased anti-MBP levels from 35 patients with acute MS relapses was used to isolate anti-MBP by MBP-Sepharose affinity chromatography (Warren, K. G. and Catz, I., J Neurol Sci 103:90-96, 1991). Purified anti-MBP samples were compared with the initial IgG source by poly-acrylamide gel electrophoresis. When purified anti-MBP samples were absorbed to zero with MBP, the post-absorption supernatants contained no residual IgG indicating the purity of anti-MBP.
Constant amounts of anti-MBP (15 radioactivity binding units corresponding to 100 for scale expansion purposes=% 0) were incubated with increasing amounts of h-MBP (0-1000 ng) or individual peptides of MBP (0-10,000 ng) in a liquid phase assay and after 1.5 hours incubation, free anti-MBP levels were determined in all mixtures. Anti-MBP isolated from 7 individual MS patients or pooled anti-MBP from 10 different MS patients were used in neutralization experiments. […] Another mouse monoclonal antibody to epitope 45-50 was used as negative antibody control.
(§1) Anti-MBP levels were determined by a solid phase radioimmunoassay with human MBP (Warren, K. G. and Catz, I., Ann Neurol 209:20-25, 1986; Warren, K. G. and Catz, I., Ann Neurol 21:183-187, 1987; and Warren, K. G. and Catz, I., J Neurol Sci 91:143-151, 1989). Free anti-MBP levels were measured in all fractions from affinity chromatography and in all neutralization mixtures. All individual samples were run in quadruplicate using the same iodinated material in order to minimize between-assay variability.

[2] = test system: mouse monoclonal antibody to epitope 45-50; test: Negative antibody control of neutralization assay; format: binding
Procedure: (§2) Constant amounts of anti-MBP (15 radioactivity binding units corresponding to 100 for scale expansion purposes=% 0) were incubated with increasing amounts of h-MBP (0-1000 ng) or individual peptides of MBP (0-10,000 ng) in a liquid phase assay and after 1.5 hours incubation, free anti-MBP levels were determined in all mixtures. Anti-MBP isolated from 7 individual MS patients or pooled anti-MBP from 10 different MS patients were used in neutralization experiments. […] One monoclonal antibody (MAb) to peptide MBP64-78 and a polyclonal rabbit antiserum to peptide MBP1-8 were used as positive antibody controls (Groome, N., Harland, J., and Dawkes, A., Neurochem Int 7:309-317, 1985; Barry, R., Payton, M., and Groome, N., Neurochem Int 2:291-300, 1991). Another mouse monoclonal antibody to epitope 45-50 was used as negative antibody control.
as §1

[3] = test system: F and B anti-MBP purified from MS brain tissue; test: Competitive inhibition assay with MBP decapeptides (epitope localization); format: binding, human; settings: percent inhibition = 100 - radioactivity units, FIG. 10
Procedure: Prior to being assayed all CSF and/or tissue samples were diluted to a final IgG concentration of 0.010 g/l. F anti-MBP was detected directly in CSF or tissue extract while B levels of antibody were determined following acid hydrolysis of immune complexes with glycine HCl buffer pH 2.2. Non-specific binding was performed for each sample in uncoated wells. For epitope localization, synthetic peptides were firstly reacted with purified antibody in a liquid phase competitive assay and then anti-MBP was determined by radioimmunoassay in all resulting supernatants. Results of the combined competitive binding assay and radioimmunoassay were expressed as percent inhibition of synthetic peptide defined as 100—radioactivity units. Samples were done in 10 replicates and counted for 10 minutes each in a LKB1275 Minigamma counter. A pool of tissue-purified anti-MBP was used at 5 pre-established dilutions as positive controls. Pooled CSF from patients with non-neurological diseases was used as negative controls. Within assay reproducibility was between 3 and 5% and between assay variation was less than 7%.
The peptide(s) producing maximum inhibition were considered to be most highly associated with the antibody binding site.

MAb to peptide MBP64-78 = test: Positive antibody control of neutralization assay; format: binding
Procedure: as §2, §1

[4] = test system: polyclonal rabbit antiserum to peptide MBP1-8; test: Positive antibody control of neutralization assay; format: binding
Procedure: as §2, §1

Substance | neutralization of anti-MBP purified from individual patients ([1]; anti-MBP from 7 individual MS patients, FIG. 3) | neutralization of purified anti-MBP [1] | REACTIVITY WITH ANTI-MBP [1] | reaction with MAb to MBP 45-50 [2] | percent inhibition of F and B anti-MBP [3] [%] | inhibition of MAb to peptide MBP64-78 (MAb to peptide MBP64-78) | inhibition of antibody to peptide MBP1-8 [4]
MBP: Native human myelin basic protein isolated from non-MS brain tissue, 18.5 KD (ASQKRPSQRHGSKYLATASTMDHARHGFLPRHRDTG) | completely neutralized | completely neutralized | ++ | did not react | 100 |  | 
ARTAHYGSLPQKSHG [MBP64-78] |  | partially neutralized | + |  |  | inhibited | 
MBP1-8: synthetic peptide of human MBP sequence 1-8 with unnatural cysteine residue (ASQKRPSQC) |  |  | − |  |  |  | inhibited

From patent publication US7368429B2, “Peptide specificity of anti-myelin basic protein and the administration of myelin basic protein peptides to multiple sclerosis patients” (The Governors of the University of Alberta, priority 1991, dated 2008)
